According to patent US6506767B1, “8-chloro-6,11-dihydro-11-(4-piperidylidine)-5H-benzo[5,6]cyclohepta[1-2-b] pyridine” (Schering Corporation, priority 1997, dated 2003):

Assays:
[1] = tested on: histamine—induced lethality in guinea pigs; test: prevention of histamine-induced lethality in guinea pigs; format: in vivo; conditions: standard animal model
[2] = Stability testing for crystalline polymorph form 1; format: physicochemical; conditions: 25, 30 and 40° C. at relative humidities of 60%, 60% and 75%, respectively

Clc1ccc2c(c1)CCc1cccnc1C2=C1CCNCC1 [form 1, 8-chloro-6,11-dihydro-11-(4-piperidylidene)-5H-benzo[5,6]cyclohepta[1,2-b]pyridine]
antihistaminic properties: prevention of histamine—induced lethality [1]: demonstrated
change from initial sample % form 1 and related compounds [2]: < 1%
